Converted amounts (≈) assume the structure as drawn.
Columns and labels:
[1] = Stability of compound in rat microsomes assessed as half-life; assay type: ADME, Microsome
[2] = Inhibition of recombinant mouse GALK1 using ATP as substrate incubated for 1 hr and measured by Kinase-Glo assay
[3] = Permeability of compound by PAMPA assay; assay type: ADME; details: read-out: permeability
[4] = Kinetic aqueous solubility of the compound; assay type: physicochemical; details: buffer; read-out: Kinetic_solubility

| Structure (SMILES) | half-life [1] [min] | IC50 ([2]; read-out: IC50) [µM] | Papp [3] [×10⁻⁶ cm/s] | solubility kinetic [4] [µg/mL] | IC50 [2] |
| --- | --- | --- | --- | --- | --- |
| CC1=C(C(=O)NCc2cnn(C)c2)[C@@H](c2ccc(C)cc2Cl)N=C(Nc2nc3cccc(N)c3o2)N1 | 7.87 | 30.6 | – | 21.9 (≈ 43.4 µM) | – |
| CC1=C(C(=O)Nc2nncs2)C(c2c(Br)cnn2C)N=C(Nc2nc3ccccc3o2)N1 (stereo unspecified) | > 30 | – | – | 38.7 (≈ 75.2 µM) | Not Active |
| CC1=C(C(=O)Nc2cc(C(=O)O)ccn2)C(c2ccc(N3CCCCC3)cc2Cl)N=C(Nc2nc3ccc(F)cc3o2)N1 (stereo unspecified) | > 30 | 12.2 | – | 1.92 (≈ 3.18 µM) | – |
| CC1=C(C(=O)Nc2nncs2)C(c2n[nH]cc2Cl)N=C(Nc2nc3ccccc3o2)N1 (stereo unspecified) | > 30 | 54.4 | – | 34.6 (≈ 75.9 µM) | – |
| CC1=C(C(=O)Nc2ccc(C(=O)N3CCOCC3)cc2)C(c2ccccc2Cl)N=C(Nc2nc3ccccc3o2)N1 (stereo unspecified) | > 30 | 21.7 | – | < 1 | – |
| CC1=C(C(=O)Nc2ccc(CO)cn2)C(c2ccccc2Cl)N=C(Nc2nc3ccc(F)cc3o2)N1 (stereo unspecified) | > 30 | 19.3 | – | < 1 | – |
| CC1=C(C(=O)Nc2nnc(-c3ccncc3)s2)C(c2ccccc2Cl)N=C(Nc2nc3ccccc3o2)N1 (stereo unspecified) | > 30 | 19.3 | – | < 1 | – |
| CC1=C(C(=O)Nc2nnc(C(F)(F)F)s2)C(c2ccccc2Cl)N=C(Nc2nc3ccccc3o2)N1 (stereo unspecified) | > 30 | 21.7 | – | < 1 | – |
| CC1=C(C(=O)Nc2ccccc2Cl)C(c2ccccc2Cl)N=C(Nc2nc3ccccc3o2)N1 (stereo unspecified) | 28.7 | – | – | < 1 | Not Active |
| CC1=C(C(=O)Nc2cc(CO)ccn2)C(c2ccccc2Cl)N=C(Nc2nc3ccc(F)cc3o2)N1 (stereo unspecified) | > 30 | 10.9 | – | < 1 | – |
| CC1=C(C(=O)NCc2cnn(C)c2)C(c2ccc(C)cc2Cl)N=C(Nc2nc3cnccc3o2)N1 (stereo unspecified) | 5.12 | 12.2 | – | > 49 | – |
| CC1=C(C(=O)Nc2ccccn2)C(c2ccccc2Cl)N=C(Nc2nc3ccc(F)cc3o2)N1 (stereo unspecified) | > 30 | 10.9 | – | < 1 | – |
| COc1ccc(Cl)c(C2N=C(Nc3nc4ccccc4o3)NC(C)=C2C(=O)Nc2nncs2)c1 (stereo unspecified) | > 30 | 17.2 | – | < 1 | – |
| CC1=C(C(=O)Nc2nncs2)C2(CCSCC2)N=C(Nc2nc3ccccc3o2)N1 | > 30 | 24.3 | – | 3.5 (≈ 7.93 µM) | – |
| CC1=C(C(=O)Nc2cc(N(C)C)ccn2)C(c2ccc(C)cc2Cl)N=C(Nc2nc3cccc(N)c3o2)N1 (stereo unspecified) | 11.7 | 15.3 | – | 4.6 (≈ 8.66 µM) | – |
| CC1=C(C(=O)Nc2ccccc2O)C(c2ccccc2Cl)N=C(Nc2nc3ccccc3o2)N1 (stereo unspecified) | 17.9 | 17.2 | – | < 1 | – |
| O=C(Nc1nncs1)C1=C(C(F)(F)F)NC(Nc2nc3ccccc3o2)=NC1c1ccccc1Cl (stereo unspecified) | > 30 | 17.2 | – | 21.9 (≈ 42.1 µM) | – |
| CC1=C(S(C)(=O)=O)C(c2ccccc2Cl)N=C(Nc2nc3ccccc3o2)N1 (stereo unspecified) | 9.37 | 19.3 | – | < 1 | – |
| COc1ccc(C2N=C(Nc3nc4cccc(N)c4o3)NC(C)=C2C(=O)Nc2cc(C(=O)O)ccn2)c(Cl)c1 (racemic) | > 30 | > 1.93 | – | > 81 | – |
| CC1=C(C(=O)Nc2nncs2)C(c2ncccc2Cl)N=C(Nc2nc3ccccc3o2)N1 (stereo unspecified) | > 30 | 19.3 | – | 10.6 (≈ 22.7 µM) | – |
| CCn1cc(CNC(=O)C2=C(C)NC(Nc3nc4ccc(F)c(N)c4o3)=N[C@@H]2c2ccc(C)cc2Cl)cn1 | 8.62 | 10.9 | – | < 1 | – |
| CC(C)C1=C(C(=O)Nc2nncs2)C(c2ccccc2Cl)N=C(Nc2nc3ccccc3o2)N1 (stereo unspecified) | > 30 | 15.3 | – | < 1 | – |
| CC1=C(C(=O)NCc2cccc(CO)c2)C(c2ccccc2Cl)N=C(Nc2nc3ccccc3o2)N1 (stereo unspecified) | 6.57 | 12.2 | – | < 1 | – |
| O=C1NCCC2=C1C(c1ccccc1Cl)N=C(Nc1nc3ccccc3o1)N2 (stereo unspecified) | 27.1 | 21.7 | – | < 1 | – |
| CC1=C(C(=O)Nc2cccc(C(N)=O)c2)C(c2ccccc2Cl)N=C(Nc2nc3ccccc3o2)N1 (stereo unspecified) | > 30 | 17.2 | – | < 1 | – |
| CC1=C(C(=O)Nc2nncs2)C(c2ccccc2C(F)(F)F)N=C(Nc2nc3ccccc3o2)N1 (stereo unspecified) | > 30 | 12.2 | – | < 1 | – |
| CC1=C(C(=O)NCc2cnn(C)c2)C(c2ccc(C)cc2Cl)N=C(Nc2nc3cccnc3o2)N1 (stereo unspecified) | 3.66 | – | – | 4.8 (≈ 9.78 µM) | Not Active |
| CC1=C(C(=O)Nc2cc(C(N)=O)ccn2)C(c2ccccc2Cl)N=C(Nc2nc3ccc(F)cc3o2)N1 (stereo unspecified) | > 30 | 19.3 | – | 2.4 (≈ 4.62 µM) | – |

More lines, now with the values ahead:

| half-life [1] [min] | IC50 ([2]; read-out: IC50) [µM] | Papp [3] [×10⁻⁶ cm/s] | solubility kinetic [4] [µg/mL] | IC50 [2] | Structure (SMILES) |
| --- | --- | --- | --- | --- | --- |
| > 30 | 9.68 | < 14.5 | – | – | CC1=C(C(=O)Nc2ccc(O)cc2)C(c2ccccc2Cl)N=C(Nc2nc3ccccc3o2)N1 (stereo unspecified) |
| > 30 | 1.72 | – | > 78 | – | CC1=C(C(=O)Nc2cc(C(=O)O)ccn2)C(c2ccc(C)cc2Cl)N=C(Nc2nc3cccc(N)c3o2)N1 (racemic) |
| > 30 | 7.69 | – | < 1 | – | CC1=C(C(=O)Nc2ccc(CO)nc2)C(c2ccccc2Cl)N=C(Nc2nc3ccccc3o2)N1 (stereo unspecified) |
| 18.9 | 1.58 | – | 17.1 (≈ 33.9 µM) | – | CC1=C(C(=O)NCc2cnn(C)c2)[C@H](c2ccc(C)cc2Cl)N=C(Nc2nc3cccc(N)c3o2)N1 |
| 5.62 | 4.32 | – | 46.1 (≈ 96.9 µM) | – | CC1=C(C(=O)NCc2cn(C)cn2)[C@H](c2ccccc2Cl)N=C(Nc2nc3ccccc3o2)N1 |
| 17.7 | 9.68 | – | < 1 | – | COC(=O)c1ccc(NC(=O)C2=C(C)NC(Nc3nc4ccccc4o3)=NC2c2ccccc2Cl)cc1 (stereo unspecified) |
| 2.74 | 5.44 | – | < 1 | – | CC1=C(C(=O)NCc2cnn(Cc3ccccc3)c2)C(c2ccc(C)cc2Cl)N=C(Nc2nc3ccc(F)cc3o2)N1 (stereo unspecified) |
| > 30 | 3.43 | – | > 72 | – | CC1=C(C(=O)NCc2cnn(C)c2)C(c2ccccc2Cl)N=C(Nc2nc3cccc(N)c3o2)N1 (stereo unspecified) |
| 5.48 | 10.9 | – | < 1 | – | O/N=C1\CCCC2=C1C(c1ccccc1Cl)N=C(Nc1nc3ccccc3o1)N2 (stereo unspecified) |
| 18.4 | 5.44 | – | < 1 | – | COC(=O)c1ccnc(NC(=O)C2=C(C)NC(Nc3nc4ccccc4o3)=NC2c2ccccc2Cl)c1 (stereo unspecified) |
| > 30 | 10.9 | – | < 1 | – | COC(=O)c1cc(NC(=O)C2=C(C)NC(Nc3nc4ccccc4o3)=NC2c2ccccc2Cl)ccn1 (stereo unspecified) |
| > 30 | 1.93 | – | 5.9 (≈ 10.9 µM) | – | CC1=C(C(=O)NCc2cnn(C)c2)C(c2ccc(Cl)cc2Cl)N=C(Nc2nc3ccc(F)c(N)c3o2)N1 (stereo unspecified) |
| > 30 | 10.9 | – | < 1 | – | CNC(=O)c1ccnc(NC(=O)C2=C(C)NC(Nc3nc4ccccc4o3)=NC2c2ccccc2Cl)c1 (stereo unspecified) |
| > 30 | 9.68 | – | < 1 | – | CC1=C(C(=O)Nc2nncs2)C(c2ccccc2Br)N=C(Nc2nc3ccccc3o2)N1 (stereo unspecified) |
| 3.42 | 7.69 | – | < 1 | – | COC(=O)c1cccc(CNC(=O)C2=C(C)NC(Nc3nc4ccccc4o3)=NC2c2ccccc2Cl)c1 (stereo unspecified) |
| > 30 | 9.68 | – | < 1 | – | CC1=C(C(=O)Nc2cc(CO)ccn2)C(c2ccccc2Cl)N=C(Nc2nc3ccccc3o2)N1 (stereo unspecified) |
| 2.37 | 6.85 | – | 12 (≈ 22.5 µM) | – | CC1=C(C(=O)NCc2c(C)nn(C)c2C)C(c2ccc(C)cc2Cl)N=C(Nc2nc3cccc(N)c3o2)N1 (stereo unspecified) |
| 18.7 | 3.06 | – | 1.56 (≈ 2.64 µM) | – | CC1=C(C(=O)NCc2cnn(CC(F)(F)F)c2)C(c2ccc(C)cc2Cl)N=C(Nc2nc3ccc(F)c(N)c3o2)N1 (stereo unspecified) |
| 1.74 | 4.32 | – | < 1 | – | COC(=O)c1ccccc1CNC(=O)C1=C(C)NC(Nc2nc3ccccc3o2)=NC1c1ccccc1Cl (stereo unspecified) |
| 2.66 | 4.85 | – | < 1 | – | CC1=C(C(=O)NCc2c(C)nn(C)c2C)C(c2ccc(C)cc2Cl)N=C(Nc2nc3ccc(F)cc3o2)N1 (stereo unspecified) |
| 6.79 | 1.93 | – | < 1 | – | CCn1cc(CNC(=O)C2=C(C)NC(Nc3nc4ccc(F)c(N)c4o3)=NC2c2ccc(Cl)cc2Cl)cn1 (stereo unspecified) |
| 72.5 | 4.32 | – | 10 (≈ 20.5 µM) | – | CC1=C(C(=O)Nc2ccc(CN)cc2)C(c2ccccc2Cl)N=C(Nc2nc3ccccc3o2)N1 (stereo unspecified) |
| 8.49 | 8.63 | – | < 1 | – | COC(=O)c1ccc(CNC(=O)C2=C(C)NC(Nc3nc4ccccc4o3)=NC2c2ccccc2Cl)cc1 (stereo unspecified) |
| 17.7 | 2.17 | – | 23.9 (≈ 45.6 µM) | – | CCn1cc(CNC(=O)C2=C(C)NC(Nc3nc4ccc(F)c(N)c4o3)=NC2c2ccccc2Cl)cn1 (stereo unspecified) |
| > 30 | 6.85 | – | 3 (≈ 5.87 µM) | – | CC1=C(C(=O)Nc2nncs2)C(c2ncccc2Br)N=C(Nc2nc3ccccc3o2)N1 (stereo unspecified) |
| 22.3 | 9.68 | – | < 1 | – | CC1=C(C(=O)Nc2ccc(CN3CCOCC3)cc2)C(c2ccccc2Cl)N=C(Nc2nc3ccccc3o2)N1 (stereo unspecified) |
| 14.4 | 4.32 | – | < 1 | – | CC1=C(C(=O)NCc2cnn(C(C)(C)C)c2)C(c2ccc(C)cc2Cl)N=C(Nc2nc3ccc(F)c(N)c3o2)N1 (stereo unspecified) |
| 14.1 | 8.63 | – | 4.6 (≈ 8.53 µM) | – | CCn1cc(CNC(=O)C2=C(C)NC(Nc3nc4cccc(N)c4o3)=NC2c2ccc(Cl)cc2Cl)cn1 (stereo unspecified) |
| > 30 | 3.85 | – | > 89 | – | CC1=C(C(=O)Nc2cc(C(=O)O)ccn2)C(c2ccc(N3CCOCC3)cc2Cl)N=C(Nc2nc3ccc(F)cc3o2)N1 (stereo unspecified) |
